Data reported in article PMC10417336 (Animals : an Open Access Journal from MDPI, 2023).
Values joined by “and” are separate entries in the source; they are usually repeats but may differ in a detail not shown here. Equal entries are not always repeated. Where two headings read alike, the source gives them in different places.

Experiments:
[1] = test system: lambari (Astyanax bimaculatus); settings: for T1/2, half-life time: t1/2=ln2/Ke
Procedure: The feed used in the experiment was purchased commercially and contained 45% protein (GuabiTech, Campinas, SP, Brazil). The amount of ^14C SDZ (Sigma-Aldrich; Saint Louis, MO, USA, Hen- 5154X Riedel) used in the experiment was the one that gave the lowest reading signal in the liquid scintillation spectrometer. Thus, the amount of feed per fish was the equivalent of 1% of body weight, 12 mg·day^−1, totaling 3528 mg of feed contaminated with 5540.38 Bq of radioactive product. The feed was homogenized after the application of the ^14C SDZ to ensure that all of the drug was evenly distributed in the feed. For confirmation, seven 50 mg samples of contaminated feed were used for the liquid scintillation spectrometer reading.
The bioaccumulation and depletion study using lambari was conducted to evaluate how the elimination of the SDZ molecule works after treatment. The experiment was performed based on the guidelines of the Organization for Economic Cooperation and Development standard no. 305 [17] and VICH-FDA [18], with adaptations for the use of radiolabeled molecules.
The lambari fingerlings were acquired from a commercial fish farm, without distinction between male and female. A total of 100 healthy fish were placed in a tank with 200 L of (chlorine-free) water. The acclimatization took place over 15 days, during which the fish were fed three times daily with commercial fish food. The water temperature was maintained at 25 °C ± 1 °C and pH 7. Feeding of the fry was stopped 24 h before the experiment.
The tests were divided into two stages, seven days of exposure and seven days of depuration. After the acclimatization process, 84 fish (approximately 5 cm long and weighing approximately 1.0 to 1.4 g) were used in the experiment. The experiment was conducted in 8 L stainless steel tanks with three replicates and two controls, with 14 fish placed in each tank. The water temperature was maintained at 25 °C ± 1 °C, pH 7, under permanent aeration, with a 12 h photoperiod. Water temperature and pH were analyzed daily.
The exposure phase of the fish to the antibiotic lasted 7 consecutive days, during which the medicated feed was offered three times a day. Control fish were fed uncontaminated feed. For the depletion phase, the remaining lambaris were transferred to clean tanks with 4 L of water and fed uncontaminated feed three times a day. It is worth noting that one fish was randomly selected and sampled during the exposure (days 1, 2, 3, 4, 5, 6, and 7) and depletion (8, 9, 10, 11, 12, 13, and 14) periods of each tank; the selected lambari was euthanized with a 0.2 mg.mL^−1 benzocaine immersion bath and frozen for later analysis.
Fish samples were burned in the Oxidizer OX500 (RJ—Harvey Instrument Corporation, Buffalo, NY, USA) in an oxygen-rich atmosphere, where 10 mL of scintillation liquid (permafluor) was used per sample. Measurement was by liquid scintillation counting (LSC) with a Tri-Carb 2910 TR LSA counter (Perkin Elmer, Waltham, MA, USA).
On day 7 (the last day of bioaccumulation) and day 14 (the last day of depletion), the aquarium water was filtered through filter paper (Whatman 42) to collect background material (metabolic excrement). The analyses of the excreta were conducted in the same way as the procedures described for fish. In addition, water samples from each aquarium were sampled in triplicate at the exposure phase (beginning and end) to determine the radiolabeled molecule, using liquid scintillation counters (LSC) with a Tri-Carb 2910 TR LSA counter (Perkin Elmer).

[2] = Table 1, source not given; cited from earlier work
[3] = test system: rainbow trout (Oncorhynchus mykiss); settings: cited from earlier work
Danio rerio = settings: listed as SDZ; cited from earlier work
[4] = test system: sea cucumbers (Apostichopus japonicus); settings: cited from earlier work
[5] = test system: common carp (Cyprinus carpio); settings: cited from earlier work

Compound: Nc1ccc(S(=O)(=O)Nc2ncccn2)cc1 [Sulfadiazine, 4-Amino-N-(2-pyrimidinyl)benzenesulfonamide]
- accumulated SDZ eliminated by the organisms ([1]; after two days of the depletion phase (7–9 days)): 93.12%
- ke, elimination constant ([1]; column Bioaccumulation, model fit): 0.3956 day⁻¹
- A, pre-exponential term ([1]; column Depletion, model fit): 186.2 ng/g
- ku, absorption constant ([1]; column Depletion, model fit): 0.6155 mL/g/day
- T1/2, half-life time ([1]; column Depletion, listed as 14C-sulfadiazine): 27.02 h
- T1/2, half-life time ([1]; column Depletion, listed as SDZ): 27.1 h
- maximum (peak) concentration of SDZ in fish ([1]; day 7 of exposure, medicated feed 2.5 mg·g^−1 three times a day, listed as SDZ): 91.7 ng/g and 91.72 ng/g
- concentration of SDZ in fish after depletion phase ([1]; day 13, end of experiment): 0.83 ng/g
- accumulated 14C-SDZ eliminated by the fish ([1]; depletion phase period (7–13 days)): 93.12%
- concentration of SDZ in excreta in the depletion period ([1]; depletion, abstract): 5.96 ng/g
- concentration of SDZ in fish relative to the MRL ([1]; during exposure (bioaccumulation) and elimination (depletion) phases): < 100 ng/g
- concentration of SDZ in excreta (sediment), elimination (depletion) phase ([1]; elimination 7–13 days): 5.9e-06 mg/g
- concentration of SDZ in the water, depletion phase ([1]; elimination 7–13 days): 0.025 ng/mL
- concentration of SDZ in excreta after the bioaccumulation period ([1]; end of exposure phase, abstract): 363.5 ng/g
- concentration of SDZ in excreta (sediment), exposure phase (Bioaccumulation) ([1]; exposure 1–7 days): 0.00036 mg/g
- concentration of SDZ in the water, end of exposure phase (Bioaccumulation) ([1]; exposure 1–7 days): 4.6 ng/mL
- bioconcentration factor (BCF) ([1]; lambari, BCF=Ca/Cw): 20 L/kg
- SDZ applied in the diet bioaccumulated in the fish (mass balance) ([1]; mass balance): 0.21%
- SDZ applied in the diet remaining in the excreta (mass balance) ([1]; mass balance): 0.69%
- SDZ applied in the diet remaining in the water (mass balance) ([1]; mass balance): 115%
- Log P [2]: −0.09
- BCF [3]: 4100 L/kg
- concentration of SDZ in the organisms on the seventh day of depletion [3]: 1.0 × 10^−4 mg·g ^−1
- highest accumulation of SDZ in the organisms ([3]; day 4, SDZ fed in the diet 0.0330 μg·mg^−1): 5.10 × 10 ^−4 mg·g^−1
- bioaccumulated amount of SDZ (Danio rerio): 4.15 Bq and 5.41 Bq
- eliminated amount of SDZ (Danio rerio): 3.79 Bq and 5.21 Bq
- BCF [4]: 2.1 to 891.5 L/kg
- BCF [5]: 2.73 to 165.73 L/kg
